Reference: patent US20240132431A1, “METHOD FOR ALKYLATING ACIDIC FUNCTIONAL GROUP” (Chugai Seiyaku Kabushiki Kaisha, priority 2021, published 2024)

Biological target: T1, Bcl-2 protein (Recombinant Human Bcl-2 Protein) (Homo sapiens, UniProt P10415)
T1 construct: purchased Novus NBP2-34889
Assay: Binding evaluation of mixture library compounds to Bcl-2 using AS-MS (affinity selection mass spectrometry)
Details: AS-MS, mixture library, Bcl-2, ASMS Ratio(%)=(A−C)/B×100; for ASMS ratio (%) n = 1: replicate n = 1; for ASMS ratio (%) n = 2: replicate n = 2
Procedure, shortened: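 Readout is ASMS Ratio (%), (A−C)/B×100, from reversed-phase LC/MS of SEC-passed extracts, with protein-free unfiltered standard (B) and protein-free SEC blank (C). Recombinant human Bcl-2 at 20 μM final met ~1200 pooled compounds at […] each for 1 h, 23° C., dark, in Tris-HCl pH 7.4 buffer.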

T1 sequence (P10415 whole entry): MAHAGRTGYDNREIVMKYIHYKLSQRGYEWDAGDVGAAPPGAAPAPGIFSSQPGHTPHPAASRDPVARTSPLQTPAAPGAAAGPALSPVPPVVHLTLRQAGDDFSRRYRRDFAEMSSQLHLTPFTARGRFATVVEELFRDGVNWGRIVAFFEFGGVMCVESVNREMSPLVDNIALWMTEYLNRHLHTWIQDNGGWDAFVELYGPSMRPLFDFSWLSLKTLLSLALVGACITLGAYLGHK

CCOc1cncc(-c2ccc(CN3CCN(c4ccc(C(=O)N(CC)CC)nn4)CC3)cc2C)c1 [B4J074-01, 6-[4-[[4-(5-Ethoxypyridin-3-yl)-3-methylphenyl]methyl]piperazin-1-yl]-N,N-diethylpyridazine-3-carboxamide]
ASMS ratio (%) n = 1: 0.0% | ASMS ratio (%) n = 2: 0.0%

CCOc1cccc(-c2ccc(CN3CCN(c4ccc(C(=O)N(CC)CC)nn4)CC3)c(CC)c2)c1 [B4J075-01, 6-[4-[[4-(3-Ethoxyphenyl)-2-ethylphenyl]methyl]piperazin-1-yl]-N,N-diethylpyridazine-3-carboxamide]
ASMS ratio (%) n = 1: 0.0% | ASMS ratio (%) n = 2: 0.0%

CCOc1cncc(-c2ccc(CN3CCN(c4ccc(C(=O)N(CC)CC)nn4)CC3)c(CC)c2)c1 [B4J076-01, 6-[4-[[4-(5-Ethoxypyridin-3-yl)-2-ethylphenyl]methyl]piperazin-1-yl]-N,N-diethylpyridazine-3-carboxamide]
ASMS ratio (%) n = 1: 0.0% | ASMS ratio (%) n = 2: 0.0%

CCOc1cccc(-c2ccc(CN3CCN(c4ccc(C(=O)N(CC)CC)nn4)CC3)cc2F)c1 [B4J077-01, 6-[4-[[4-(3-Ethoxyphenyl)-3-fluorophenyl]methyl]piperazin-1-yl]-N,N-diethylpyridazine-3-carboxamide]
ASMS ratio (%) n = 1: 1.2% | ASMS ratio (%) n = 2: −5.5%

CCOc1cncc(-c2ccc(CN3CCN(c4ccc(C(=O)N(CC)CC)nn4)CC3)cc2F)c1 [B4J078-01, 6-[4-[[4-(5-Ethoxypyridin-3-yl)-3-fluorophenyl]methyl]piperazin-1-yl]-N,N-diethylpyridazine-3-carboxamide]
ASMS ratio (%) n = 1: −0.5% | ASMS ratio (%) n = 2: 0.9%

CCOc1cccc(-c2ccc(CN3CCN(c4ccc(C(=O)N(CC)CC)nn4)CC3)c(OC)c2)c1 [B4J079-01, 6-[4-[[4-(3-Ethoxyphenyl)-2-methoxyphenyl]methyl]piperazin-1-yl]-N,N-diethylpyridazine-3-carboxamide]
ASMS ratio (%) n = 1: 0.0% | ASMS ratio (%) n = 2: 0.0%

CCOc1cncc(-c2ccc(CN3CCN(c4ccc(C(=O)N(CC)CC)nn4)CC3)c(OC)c2)c1 [B4J080-01]
ASMS ratio (%) n = 1: 0.0% | ASMS ratio (%) n = 2: 0.0%

CCOc1cccc(-c2cc(CN3CCN(c4ccc(C(=O)N(CC)CC)nn4)CC3)cc(OCC)c2)c1 [B4J081-01, 6-[4-[[3-Ethoxy-5-(3-ethoxyphenyl)phenyl]methyl]piperazin-1-yl]-N,N-diethylpyridazine-3-carboxamide]
ASMS ratio (%) n = 1: 0.0% | ASMS ratio (%) n = 2: 0.0%

CCOc1cncc(-c2cc(CN3CCN(c4ccc(C(=O)N(CC)CC)nn4)CC3)cc(OCC)c2)c1 [B4J082-01, 6-[4-[[3-Ethoxy-5-(5-ethoxypyridin-3-yl)phenyl]methyl]piperazin-1-yl]-N,N-diethylpyridazine-3-carboxamide]
ASMS ratio (%) n = 1: 0.0% | ASMS ratio (%) n = 2: 0.0%

CCOc1cccc(-c2cc(CN3CCN(c4ccc(C(=O)N(CC)CC)nn4)CC3)cc(OC(C)C)c2)c1 [B4J083-01, 6-[4-[[3-(3-Ethoxyphenyl)-5-propan-2-yloxyphenyl]methyl]piperazin-1-yl]-N,N-diethylpyridazine-3-carboxamide]
ASMS ratio (%) n = 1: 0.0% | ASMS ratio (%) n = 2: 0.0%

CCOc1cncc(-c2cc(CN3CCN(c4ccc(C(=O)N(CC)CC)nn4)CC3)cc(OC(C)C)c2)c1 [B4J084-01, 6-[4-[[3-(5-Ethoxypyridin-3-yl)-5-propan-2-yloxyphenyl]methyl]piperazin-1-yl]-N,N-diethylpyridazine-3-carboxamide]
ASMS ratio (%) n = 1: 0.0% | ASMS ratio (%) n = 2: −0.6%

CCOc1cccc(-c2cc(OC)c(CN3CCN(c4ccc(C(=O)N(CC)CC)nn4)CC3)c(OC)c2)c1 [B4J085-01, 6-[4-[[4-(3-Ethoxyphenyl)-2,6-dimethoxyphenyl]methyl]piperazin-1-yl]-N,N-diethylpyridazine-3-carboxamide]
ASMS ratio (%) n = 1: 0.0% | ASMS ratio (%) n = 2: 2.8%

CCOc1cncc(-c2cc(OC)c(CN3CCN(c4ccc(C(=O)N(CC)CC)nn4)CC3)c(OC)c2)c1 [B4J086-01, 6-[4-[[4-(5-Ethoxypyridin-3-yl)-2,6-dimethoxyphenyl]methyl]piperazin-1-yl]-N,N-diethylpyridazine-3-carboxamide]
ASMS ratio (%) n = 1: 0.0% | ASMS ratio (%) n = 2: 0.0%

CCOc1cccc(-c2cc(CN3CCN(c4ccc(C(=O)N(CC)CC)nn4)CC3)cc(C(F)(F)F)c2)c1 [B4J087-01, 6-[4-[[3-(3-Ethoxyphenyl)-5-(trifluoromethyl)phenyl]methyl]piperazin-1-yl]-N,N-diethylpyridazine-3-carboxamide]
ASMS ratio (%) n = 1: 0.9% | ASMS ratio (%) n = 2: 0.3%

CCOc1cncc(-c2cc(CN3CCN(c4ccc(C(=O)N(CC)CC)nn4)CC3)cc(C(F)(F)F)c2)c1 [B4J088-01]
ASMS ratio (%) n = 1: 0.0% | ASMS ratio (%) n = 2: 0.0%

CCOc1cccc(-c2cc(CN3CCN(c4ccc(C(=O)N(CC)CC)nn4)CC3)cc(OC(F)(F)F)c2)c1 [B4J089-01, 6-[4-[[3-(3-Ethoxyphenyl)-5-(trifluoromethoxy)phenyl]methyl]piperazin-1-yl]-N,N-diethylpyridazine-3-carboxamide]
ASMS ratio (%) n = 1: 3.9% | ASMS ratio (%) n = 2: 0.4%

CCOc1cncc(-c2cc(CN3CCN(c4ccc(C(=O)N(CC)CC)nn4)CC3)cc(OC(F)(F)F)c2)c1 [B4J090-01, 6-[4-[[3-(5-Ethoxypyridin-3-yl)-5-(trifluoromethoxy)phenyl]methyl]piperazin-1-yl]-N,N-diethylpyridazine-3-carboxamide]
ASMS ratio (%) n = 1: 1.4% | ASMS ratio (%) n = 2: −1.5%

CCOc1cccc(-c2ccc(CN3CCN(c4ccc(C(=O)N(CC)CC)nn4)CC3)c3ccccc23)c1 [B4J091-01, 6-[4-[[4-(3-Ethoxyphenyl)naphthalen-1-yl]methyl]piperazin-1-yl]-N,N-diethylpyridazine-3-carboxamide]
ASMS ratio (%) n = 1: 3.7% | ASMS ratio (%) n = 2: 1.5%

CCOc1cncc(-c2ccc(CN3CCN(c4ccc(C(=O)N(CC)CC)nn4)CC3)c3ccccc23)c1 [B4J092-01, 6-[4-[[4-(5-Ethoxypyridin-3-yl)naphthalen-1-yl]methyl]piperazin-1-yl]-N,N-diethylpyridazine-3-carboxamide]
ASMS ratio (%) n = 1: −1.4% | ASMS ratio (%) n = 2: 0.3%

CCOc1cccc(-c2csc(CN3CCN(c4ccc(C(=O)N(CC)CC)nn4)CC3)c2)c1 [B4J093-01]
ASMS ratio (%) n = 1: −2.1% | ASMS ratio (%) n = 2: 0.6%

CCOc1cncc(-c2csc(CN3CCN(c4ccc(C(=O)N(CC)CC)nn4)CC3)c2)c1 [B4J094-01]
ASMS ratio (%) n = 1: −1.3% | ASMS ratio (%) n = 2: 0.1%

CCOc1cccc(C#Cc2ccccc2CN2CCN(c3ccc(C(=O)N(CC)CC)nn3)CC2)c1 [B4J095-01, 6-[4-[[2-[2-(3-Ethoxyphenyl)ethynyl]phenyl]methyl]piperazin-1-yl]-N,N-diethylpyridazine-3-carboxamide]
ASMS ratio (%) n = 1: 1.5% | ASMS ratio (%) n = 2: 0.0%

CCOc1cncc(C#Cc2ccccc2CN2CCN(c3ccc(C(=O)N(CC)CC)nn3)CC2)c1 [B4J096-01]
ASMS ratio (%) n = 2: 0.0%

CCOc1cccc(-c2ccc(C(C)N3CCN(c4ccc(C(=O)N(CC)CC)cc4)CC3)cc2)c1 (stereo not shown) [B4J097-01, 4-[4-[1-[4-(3-Ethoxyphenyl)phenyl]ethyl]piperazin-1-yl]-N,N-diethylbenzamide]
ASMS ratio (%) n = 1: −0.9% | ASMS ratio (%) n = 2: −0.4%

CCOc1cncc(-c2ccc(C(C)N3CCN(c4ccc(C(=O)N(CC)CC)cc4)CC3)cc2)c1 (stereo not shown) [B4J098-01, 4-[4-[1-[4-(5-Ethoxypyridin-3-yl)phenyl]ethyl]piperazin-1-yl]-N,N-diethylbenzamide]
ASMS ratio (%) n = 1: −2.0% | ASMS ratio (%) n = 2: −0.2%

CCOc1cccc(-c2ccc(C(C)N3CCN(c4ccc(C(=O)N(CC)CC)cc4)CC3)c(F)c2)c1 (stereo not shown) [B4J099-01, 4-[4-[1-[4-(3-Ethoxyphenyl)-2-fluorophenyl]ethyl]piperazin-1-yl]-N,N-diethylbenzamide]
ASMS ratio (%) n = 2: 0.0%

CCOc1cncc(-c2ccc(C(C)N3CCN(c4ccc(C(=O)N(CC)CC)cc4)CC3)c(F)c2)c1 (stereo not shown) [B4J100-01, 4-[4-[1-[4-(5-Ethoxypyridin-3-yl)-2-fluorophenyl]ethyl]piperazin-1-yl]-N,N-diethylbenzamide]
ASMS ratio (%) n = 1: 0.0% | ASMS ratio (%) n = 2: 0.0%
